Type in all cases: functional
In assay [1] the test system is Xanthomonas phaseoli pv. phaseoli. Description: In vitro antibacterial activity against Xanthomonas campestris pv. phaseoli assessed as inhibition at 0.1 %.
The test system of assay [2] is Xanthomonas euvesicatoria. As to the kind of experiment: In vitro antibacterial activity against Xanthomonas euvesicatoria P-2092 assessed as inhibition at 0.1 %.
The test system of the next assay is Agrobacterium sp. Description: In vitro antibacterial activity against Agrobacterium radiobacter pv. tumefaciens assessed as inhibition at 0.1 %.
Assay [3] has as its system Xanthomonas campestris pv. campestris. Description: In vitro antibacterial activity against Xanthomonas campestris pv. campestris KF2 assessed as inhibition at 0.1 %.
Another assay concerns Botrytis cinerea. Description: In vitro antifungal activity against Botryotinia fuckeliana assessed as inhibition at 0.1 %.
Assay [4] concerns Pseudomonas savastanoi pv. glycinea. Description: In vitro antibacterial activity against Pseudomonas syringae pv. glycinea S1 assessed as inhibition at 0.1 %.
The next assay deals with Pseudomonas viridiflava. Description: In vitro antibacterial activity against Pseudomonas viridiflava 8 assessed as inhibition at 0.1 %.
Assay [5] relates to Pseudomonas savastanoi pv. phaseolicola. Description: In vitro antibacterial activity against Pseudomonas syringae pv. phaseolicola E81 assessed as inhibition at 0.1 %.

Active and inactive are the calls of the source. The rule behind the calls is not given here.

Take `Cc1cc2nc(/N=C/c3ccc([N+](=O)[O-])o3)n(Cc3cccc(F)c3)c2cc1C`: the “diameter of the inhibition zone (DIZ)” value (in assay [1]; in assay [2]; in the assay with Agrobacterium sp.) was 3 cm in each case.
For the compound `Cc1cccc(OCn2c(/N=C/c3ccc([N+](=O)[O-])o3)nc3ccccc32)c1`, the “diameter of the inhibition zone (DIZ)” value (in assay [2]; in the assay with Agrobacterium sp.; in assay [3]) was 3 cm in each case.
For `Cc1ccccc1Cn1c(/N=C/c2ccc([N+](=O)[O-])o2)nc2ccccc21`, the “diameter of the inhibition zone (DIZ)” value (in assay [2]; in the assay on Agrobacterium sp.; in assay [3]) was 3 cm in each case.
Consider `CCn1c(N)nc2ccccc21`, for which the “diameter of the inhibition zone (DIZ)” value is 1 cm in assay [2], 3 cm in the assay on Agrobacterium sp., 3 cm in the assay with Botrytis cinerea and 3 cm in assay [3].
Regarding `Nc1nc2ccccc2n1/N=C/c1ccc([N+](=O)[O-])o1`, the “diameter of the inhibition zone (DIZ)” value was determined as 3 cm in assay [1]; 2 cm in assay [4]; 1 cm in assay [2]; 2 cm in the assay with Pseudomonas viridiflava; 2 cm in assay [3]; 2 cm in assay [5].
Turning to `CCCCn1c(/N=C/c2ccc([N+](=O)[O-])o2)nc2cc(C)c(C)cc21`, the “diameter of the inhibition zone (DIZ)” value in the assay on Botrytis cinerea came out at 3 cm.
With `Cc1ccc(Cn2c(N)nc3ccccc32)cc1`, the “diameter of the inhibition zone (DIZ)” value (in assay [2]; in the assay with Agrobacterium sp.; in assay [3]) was 3 cm in each case.
Take `Cc1ccc(Cn2cnc3cc(C)c(C)cc32)cc1`: the inhibition entry in assay [1] and in assay [2] was “inactive” each time. Moreover, the “diameter of the inhibition zone (DIZ)” value in assay [4] was determined as 1 cm; with Pseudomonas viridiflava, 1 cm; in the assay with Botrytis cinerea, 1 cm; in assay [3], 2 cm; in assay [5], 1 cm.
On to `Cc1cc2nc(N)n(Cc3ccc(Cl)cc3)c2cc1C`, for which the “diameter of the inhibition zone (DIZ)” value worked out at 1 cm in assay [1]; 2 cm in assay [4]; 1 cm in assay [2]; 1 cm in the assay on Pseudomonas viridiflava; 2 cm in assay [3]; 2 cm in assay [5].
Consider `Cc1ccc(Cn2c(/N=C/c3ccc([N+](=O)[O-])o3)nc3cc(C)c(C)cc32)cc1`, for which the “diameter of the inhibition zone (DIZ)” value (in assay [1]; in assay [2]; in the assay on Agrobacterium sp.) was 3 cm each time.
Regarding `O=[N+]([O-])c1ccc(/C=N/c2nc3ccccc3n2Cc2ccc(Cl)cc2)o1`, the “diameter of the inhibition zone (DIZ)” value in the assay on Agrobacterium sp. is 3 cm. Also, in the assay on Botrytis cinerea, the inhibition result is “inactive”.
As to `Cc1cc2ncn(C(C)(C)C)c2cc1C`, the “diameter of the inhibition zone (DIZ)” value (in assay [2]; in the assay with Agrobacterium sp.; in assay [3]) was 3 cm each time.
As for `Cc1cccc(Cn2c(/N=C/c3ccc([N+](=O)[O-])o3)nc3ccccc32)c1`, the “diameter of the inhibition zone (DIZ)” value is on record as 2 cm in assay [2], 3 cm in the assay with Agrobacterium sp. and 3 cm in assay [3].
In the case of `Cc1cc2ncn(Cc3cccc(Cl)c3)c2cc1C`, the inhibition result in assay [1] and in assay [5] was “inactive” each time. Also, the “diameter of the inhibition zone (DIZ)” value is reported as 2 cm in assay [4]; 2 cm in assay [2]; 2 cm with Pseudomonas viridiflava; 1 cm in the assay with Botrytis cinerea; 1 cm in assay [3].
For the compound `Cc1cc2nc(/N=C/c3ccc([N+](=O)[O-])o3)[nH]c2cc1C`, the “diameter of the inhibition zone (DIZ)” value (in assay [2]; in the assay on Agrobacterium sp.; in assay [3]) was 3 cm in each case.
For `CCn1cnc2cc(C)c(C)cc21`, the “diameter of the inhibition zone (DIZ)” value (in assay [2]; with Agrobacterium sp.; in assay [3]) was 3 cm in each case.
On to `Nc1nc2ccccc2n1Cc1ccc(Cl)cc1`, for which the inhibition entry in assay [1] and in assay [2] was “inactive” each time. Moreover, the “diameter of the inhibition zone (DIZ)” value (in assay [4]; with Pseudomonas viridiflava; in the assay with Botrytis cinerea; in assay [3]; in assay [5]) was 1 cm in each case.
On to `Cc1cc2nc(N)n(Cc3cccc(Cl)c3)c2cc1C`, for which the “diameter of the inhibition zone (DIZ)” value in assay [1] is listed as 3 cm; in assay [4], 2 cm; in assay [2], 3 cm; in the assay on Pseudomonas viridiflava, 2 cm; in the assay with Agrobacterium sp. it was 2 cm; with Botrytis cinerea it was 3 cm. For the same compound, the “diameter of the inhibition zone (DIZ)” value in assay [3] stood at 3 cm; in assay [5] it was 2 cm.
As for `Cc1cc2nc(/N=C/c3ccc([N+](=O)[O-])o3)n(Cc3cccc(Cl)c3)c2cc1C`, the “diameter of the inhibition zone (DIZ)” value in the assay with Agrobacterium sp. stood at 3 cm. In addition, the inhibition result in the assay on Botrytis cinerea was “inactive”.
With `Cc1ccc(Cn2c(N)nc3cc(C)c(C)cc32)cc1`, the “diameter of the inhibition zone (DIZ)” value in assay [2] worked out at 2 cm; with Agrobacterium sp., 3 cm; in assay [3], 2 cm.
On to `Cc1cc2ncn(Cc3ccccc3C)c2cc1C`, for which the “diameter of the inhibition zone (DIZ)” value is 3 cm in assay [2], 3 cm with Agrobacterium sp. and 2 cm in assay [3].
With `CCn1c(N)nc2cc(C)c(C)cc21`, the “diameter of the inhibition zone (DIZ)” value in assay [2] was 3 cm; with Agrobacterium sp. it was 2 cm; in the assay with Botrytis cinerea, 3 cm; in assay [3], 3 cm.
Regarding `O=[N+]([O-])c1ccc(/C=N/c2nc3ccccc3n2Cc2cccc(F)c2)o1`, the “diameter of the inhibition zone (DIZ)” value (in assay [2]; with Agrobacterium sp.; in assay [3]) was 3 cm throughout.
As for `Cc1cc2nc(/N=C/c3ccc([N+](=O)[O-])o3)n(Cc3ccccc3Cl)c2cc1C`, the “diameter of the inhibition zone (DIZ)” value (in assay [1]; in assay [2]; in the assay on Agrobacterium sp.) was 3 cm in each case.
In the case of `Cc1cc2c(cc1C)[n+](N)cn2Cc1ccc(Cl)cc1.O=S(=O)([O-])c1ccccc1`, the “diameter of the inhibition zone (DIZ)” value (in assay [1]; in assay [2]; in the assay with Pseudomonas viridiflava; in assay [3]) was 2 cm each time. Moreover, the inhibition entry in assay [4] and in assay [5] was “inactive” each time.
As for `Nc1nc2ccccc2n1Cc1ccccc1Cl`, the “diameter of the inhibition zone (DIZ)” value in assay [1] is listed as 1 cm; in assay [2], 2 cm; with Pseudomonas viridiflava, 2 cm; in assay [3], 3 cm. Further, the inhibition entry (in assay [4]; in the assay on Botrytis cinerea; in assay [5]) was “inactive” in each case.
Consider `O=[N+]([O-])c1ccc(/C=N/c2nc3ccccc3[nH]2)o1`, for which the “diameter of the inhibition zone (DIZ)” value in assay [1] was 3 cm; in assay [4], 2 cm; in assay [2] it was 1 cm; in the assay on Pseudomonas viridiflava, 2 cm; in the assay on Agrobacterium sp. it was 3 cm; in the assay with Botrytis cinerea, 3 cm. Besides, the “diameter of the inhibition zone (DIZ)” value in assay [3] and in assay [5] was 2 cm each time.
As to `CC(C)(C)n1c(N)nc2ccccc21`, in the assay with Botrytis cinerea, the “diameter of the inhibition zone (DIZ)” value was found to be 3 cm.
For `Cc1cccc(Cn2cnc3cc(C)c(C)cc32)c1`, the results for the “diameter of the inhibition zone (DIZ)” value (in assay [2]; in the assay with Agrobacterium sp.; in assay [3]) were 3 cm, 3 cm and 2 cm, respectively.
`Nc1nc2ccccc2n1Cc1cccc(F)c1`: the “diameter of the inhibition zone (DIZ)” value (in assay [2]; with Agrobacterium sp.; in assay [3]) was 3 cm each time.
`COc1cccc(Cn2cnc3cc(C)c(C)cc32)c1`: the “diameter of the inhibition zone (DIZ)” value was found to be 3 cm in assay [2], 3 cm in the assay on Agrobacterium sp. and 2 cm in assay [3].
Regarding `CCCCn1cnc2cc(C)c(C)cc21`, the “diameter of the inhibition zone (DIZ)” value stood at 2 cm in assay [2], 3 cm with Agrobacterium sp., 3 cm in the assay with Botrytis cinerea and 2 cm in assay [3].
As for `Cc1cc2nc(N)n(Cc3cccc(F)c3)c2cc1C`, the “diameter of the inhibition zone (DIZ)” value (in assay [2]; with Agrobacterium sp.; in assay [3]) was 3 cm in each case.
Turning to `Cc1ccccc1Cn1c(N)nc2ccccc21`, the “diameter of the inhibition zone (DIZ)” value (in assay [2]; with Agrobacterium sp.; in assay [3]) was 3 cm each time.
Take `Cc1cc2nc(N)n(Cc3ccccc3Cl)c2cc1C`: the “diameter of the inhibition zone (DIZ)” value in assay [2] was 3 cm; with Agrobacterium sp., 3 cm; in assay [3], 2 cm.
Turning to `Cc1cc2nc(N)n(/N=C/c3ccc([N+](=O)[O-])o3)c2cc1C`, the “diameter of the inhibition zone (DIZ)” value (in assay [2]; with Agrobacterium sp.; in assay [3]) was 3 cm each time.

The values above are taken from ChEMBL document CHEMBL3045028, “Synthesis, AntiBacteriol, and Antifungal Activities of Some New Benzimidazoles” (1992).
